Results taken from ChEMBL document CHEMBL1201862, “PubChem BioAssay data set” (2004).
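Cultured in 96-well plates, cells were exposed to test compound for 48 hours across five concentrations. GI50 = concentration required for 50% inhibition of growth.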 The source made the active and inactive calls. No stated cut-off is given here; in the data, active = GI50 up to about 1.1 µM and inactive = higher.

Columns and labels:
Experiment in all cases: NCI anticancer screen, dose series, 48 h
786-0 = tested on: 786-0
A498 = tested on: A498
ACHN = tested on: ACHN
CAKI-1 = tested on: CAKI-1
HCC 2998 = tested on: HCC 2998
HL-60 = tested on: HL-60
IGROV-1 = tested on: IGROV-1
Malme-3M = tested on: Malme-3M
OVCAR-3 = tested on: OVCAR-3
RPMI-8226 = tested on: RPMI-8226
SF-295 = tested on: SF-295
SF-539 = tested on: SF-539
SK-OV-3 = tested on: SK-OV-3
SN12C = tested on: SN12C
U-251 = tested on: U-251
UACC-62 = tested on: UACC-62
UO-31 = tested on: UO-31
RXF 393 = tested on: RXF 393

Measured: GI50

CC1=C2CCCC2C/C(=N/Nc2ccc([N+](=O)[O-])cc2[N+](=O)[O-])CC1 (configuration not stated)
inactive: 786-0 > 100 µM | A498 > 100 µM | ACHN > 100 µM | CAKI-1 > 100 µM | HCC 2998 > 100 µM | HL-60 11.1 µM | IGROV-1 > 100 µM | Malme-3M > 100 µM | OVCAR-3 > 100 µM | RPMI-8226 > 100 µM | SF-295 > 100 µM | SF-539 > 100 µM | SK-OV-3 > 100 µM | SN12C > 100 µM | U-251 > 100 µM | UACC-62 > 100 µM | UO-31 > 100 µM

C=C1CC2(CCS(=O)(=O)c3ccccc32)OC1=O (configuration not stated)
inactive: 786-0 4.32 µM | A498 17.3 µM | ACHN 11.5 µM | CAKI-1 1.48 µM | HCC 2998 21.9 µM | HL-60 2.96 µM | IGROV-1 16.6 µM | Malme-3M 12.4 µM | OVCAR-3 7.52 µM | RPMI-8226 2.74 µM | SF-295 21.1 µM | SF-539 5.6 µM | SK-OV-3 17.6 µM | U-251 13.2 µM | UACC-62 15.9 µM | UO-31 13.2 µM

COc1ccc(N(C)CN(C)c2nc(N(C)C)nc(N(C)C)n2)cc1
inactive: 786-0 > 100 µM | A498 > 100 µM | ACHN > 100 µM | CAKI-1 > 100 µM | HL-60 > 100 µM | IGROV-1 > 100 µM | Malme-3M > 100 µM | OVCAR-3 > 100 µM | RPMI-8226 > 100 µM | SF-295 > 100 µM | SF-539 > 100 µM | SK-OV-3 > 100 µM | SN12C > 100 µM | U-251 > 100 µM | UACC-62 > 100 µM | UO-31 > 100 µM

COC(=O)[C@]1(C)CCC[C@@]2(C)C1CCC1=C[C@@]3(C(C)C)CC[C@]12OO3 (some centres not stated)
inactive: 786-0 20.4 µM | A498 20.4 µM | ACHN 36.4 µM | CAKI-1 > 10 µM | HCC 2998 31.3 µM | HL-60 19.1 µM | IGROV-1 33.2 µM | Malme-3M 42 µM | OVCAR-3 27.8 µM | RPMI-8226 18.2 µM | SF-295 25.8 µM | SF-539 22.3 µM | SK-OV-3 60 µM | SN12C 31.3 µM | U-251 41.8 µM | UACC-62 25.3 µM | UO-31 18.5 µM

CCOc1ccc(NC(=O)CC2C(=O)Nc3ccccc3S2(=O)=O)cc1 (configuration not stated)
inactive: 786-0 33.7 µM | A498 > 100 µM | ACHN > 100 µM | HCC 2998 > 100 µM | HL-60 > 100 µM | IGROV-1 > 100 µM | Malme-3M > 100 µM | OVCAR-3 77.1 µM | RPMI-8226 > 100 µM | RXF 393 64.1 µM | SF-295 49.4 µM | SF-539 55.1 µM | SN12C 53.1 µM | U-251 33.2 µM | UO-31 > 100 µM

COc1c(C)c(O)c2c(c1C)OC(c1ccccc1)CC2=O (configuration not stated)
inactive: 786-0 89.3 µM | A498 19.9 µM | ACHN 51.9 µM | CAKI-1 41.2 µM | HCC 2998 56.1 µM | HL-60 28.3 µM | IGROV-1 98.9 µM | Malme-3M 24.6 µM | OVCAR-3 > 100 µM | RPMI-8226 36.1 µM | SF-295 50.6 µM | SF-539 84.5 µM | SK-OV-3 > 100 µM | SN12C 52.5 µM | U-251 67.9 µM | UACC-62 53 µM | UO-31 61.7 µM

COCCOc1cc(C)cc(/C=C(C)/C=C/C2=C(C)CCCC2(C)C)n1
inactive: 786-0 > 100 µM | A498 > 100 µM | ACHN 84.3 µM | CAKI-1 > 100 µM | IGROV-1 > 100 µM | Malme-3M 38.3 µM | OVCAR-3 > 100 µM | RPMI-8226 14.8 µM | RXF 393 39.7 µM | SF-295 > 100 µM | SF-539 > 100 µM | SK-OV-3 > 100 µM | SN12C > 100 µM | U-251 62.4 µM | UACC-62 > 100 µM | UO-31 > 100 µM

COc1ccc(C)cc1-c1ccc(-c2cc(C)ccc2OC)o1
inactive: 786-0 > 100 µM | A498 > 100 µM | ACHN > 100 µM | CAKI-1 > 100 µM | HCC 2998 > 100 µM | HL-60 86.5 µM | IGROV-1 > 100 µM | Malme-3M 66.4 µM | OVCAR-3 > 100 µM | RPMI-8226 > 100 µM | SF-295 > 100 µM | SF-539 > 100 µM | SK-OV-3 > 100 µM | SN12C > 100 µM | U-251 > 100 µM | UACC-62 > 100 µM | UO-31 > 100 µM

CCOC(=O)C(=O)Nc1ccccc1OCC
inactive: 786-0 > 100 µM | ACHN > 100 µM | CAKI-1 > 100 µM | HCC 2998 > 100 µM | HL-60 > 100 µM | IGROV-1 > 100 µM | Malme-3M > 100 µM | OVCAR-3 > 100 µM | RPMI-8226 > 100 µM | RXF 393 > 100 µM | SF-295 > 100 µM | SF-539 > 100 µM | SK-OV-3 > 100 µM | SN12C > 100 µM | U-251 > 100 µM | UACC-62 > 100 µM | UO-31 92.9 µM

CC(=O)NC1=C(NCCO)C(=O)c2ccccc2C1=O
inactive: 786-0 > 50 µM | ACHN > 50 µM | HCC 2998 > 50 µM | HL-60 20.8 µM | IGROV-1 > 50 µM | Malme-3M 12.8 µM | OVCAR-3 18.9 µM | RXF 393 > 50 µM | SF-295 > 50 µM | SF-539 > 50 µM | SK-OV-3 > 50 µM | SN12C > 50 µM | U-251 > 50 µM | UACC-62 > 50 µM | UO-31 > 50 µM

CC1SC2=NC3=C(c4ccccc4C3=O)C(c3ccc(Cl)cc3)N2C1=O (configuration not stated)
inactive: 786-0 > 100 µM | A498 > 100 µM | ACHN > 100 µM | CAKI-1 > 100 µM | HCC 2998 > 100 µM | HL-60 > 100 µM | IGROV-1 > 100 µM | Malme-3M > 100 µM | OVCAR-3 > 100 µM | RPMI-8226 64 µM | SF-295 > 100 µM | SK-OV-3 > 100 µM | SN12C 95.5 µM | U-251 > 100 µM | UACC-62 > 100 µM | UO-31 32.8 µM

C=C[C@H]1C=Cc2c(OC)cccc2[C@@H]1COP1(=S)NC(C)C(c2ccccc2)O1 (some centres not stated)
inactive: 786-0 > 100 µM | HCC 2998 92 µM | HL-60 18.9 µM | IGROV-1 > 100 µM | OVCAR-3 > 100 µM | RPMI-8226 27 µM | RXF 393 51.1 µM | SF-295 > 100 µM | SF-539 > 100 µM | SK-OV-3 > 100 µM | SN12C > 100 µM | U-251 86.3 µM | UACC-62 84.5 µM
